The source of these data is article PMC8341910, “Structural and biophysical insights into the mode of covalent binding of rationally designed potent BMX inhibitors” (RSC Chemical Biology, 2020).

For one assay, the system named is SK-N-MC. Briefly: Multi cell line growth assay (CellTiter-Glo, 72 h). Format: cell-based, human. The conditions noted are these: Homo sapiens, SK-N-MC, Brain, ND = no growth inhibition observed. On the technique in general: Cellular ATP, detected with luciferase, serves as a proxy for viable cell number.
A further assay relates to H1299. The experiment in a line: Multi cell line growth assay (CellTiter-Glo, 72 h). The assay is classed as cell-based, human. The conditions noted are these: Homo sapiens, NCI-H1299, Bone marrow (so in the source), ND = no growth inhibition observed.
For a further assay, the system named is LNCaP. Briefly: Multi cell line growth assay (CellTiter-Glo, 72 h). The assay is classed as cell-based, human. The following applies: Homo sapiens, LNCaP, Prostate, ND = no growth inhibition observed within the concentrations tested.
For another assay, the system named is 22 RV1. Briefly: Multi cell line growth assay (CellTiter-Glo, 72 h). The assay is classed as cell-based, human. The conditions noted are these: Homo sapiens, 22Rv1, Prostate, ND = no growth inhibition observed.
Another assay relates to RS4(11). The experiment in a line: Multi cell line growth assay (CellTiter-Glo, 72 h). The conditions noted are these: Homo sapiens, RS4-11, Lung (so in the source), ND = no growth inhibition observed. Format: cell-based, human.
In a further assay the target is T1, His6-hsBMX (Homo sapiens, UniProt P51813).
T1 construct: Crystallization, data collection, and structure determination of BMX catalytic domain in; made in house; host or cells: Sf-9 insect cells
The experiment in a line: Surface plasmon resonance (SPR). Format: binding. The conditions noted are these: 1:1 Langmuir fit, 25 °C. On the technique in general: In SPR one partner is held on a chip, and binding of the other changes the refractive index at the surface.

Another assay deals with U-87MG. The experiment in a line: Multi cell line growth assay (CellTiter-Glo, 72 h). Format: cell-based. The conditions noted are these: Homo sapiens, Brain, ND = no growth inhibition observed.
The subject of a further assay is CAOV3. The experiment in a line: Multi cell line growth assay (CellTiter-Glo, 72 h). The assay is classed as cell-based, human. The following applies: Homo sapiens, Caov-3, Ovary, ND = no growth inhibition observed.
The test system of a further assay is Kasumi. Briefly: Multi cell line growth assay (CellTiter-Glo, 72 h). The assay is classed as cell-based, human. The following applies: Homo sapiens, Blood, ND = no growth inhibition observed.
The subject of another assay is Jurkat. The experiment in a line: Multi cell line growth assay (CellTiter-Glo, 72 h). The assay is classed as cell-based, human. The following applies: Homo sapiens, Jurkat, Blood, ND = no growth inhibition observed.
The next assay deals with PTK2 (Homo sapiens, UniProt Q05397). Briefly: KINOMEscan binding. The conditions noted are these: read-out: % Ctrl PTK2.
The target of a further assay is T2, BMX (Homo sapiens, UniProt P51813).
T2 sequence (P51813 1-675): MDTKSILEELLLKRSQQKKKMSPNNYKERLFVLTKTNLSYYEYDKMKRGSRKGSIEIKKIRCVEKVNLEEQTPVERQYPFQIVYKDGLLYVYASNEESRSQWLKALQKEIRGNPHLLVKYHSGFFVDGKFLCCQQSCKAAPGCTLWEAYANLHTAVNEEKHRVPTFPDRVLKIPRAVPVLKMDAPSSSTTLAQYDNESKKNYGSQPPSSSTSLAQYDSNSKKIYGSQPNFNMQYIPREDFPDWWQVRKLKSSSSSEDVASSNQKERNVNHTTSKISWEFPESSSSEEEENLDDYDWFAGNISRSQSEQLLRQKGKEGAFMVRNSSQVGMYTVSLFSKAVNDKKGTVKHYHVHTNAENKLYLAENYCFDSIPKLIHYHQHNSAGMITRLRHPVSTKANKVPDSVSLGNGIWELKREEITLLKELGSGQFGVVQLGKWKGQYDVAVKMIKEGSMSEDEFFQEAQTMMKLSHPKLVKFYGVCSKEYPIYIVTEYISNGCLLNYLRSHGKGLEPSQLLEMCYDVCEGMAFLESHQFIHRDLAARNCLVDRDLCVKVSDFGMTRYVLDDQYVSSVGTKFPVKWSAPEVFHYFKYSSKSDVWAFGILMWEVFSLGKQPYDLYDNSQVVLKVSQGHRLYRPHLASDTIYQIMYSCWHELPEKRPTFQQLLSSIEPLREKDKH
Briefly: KINOMEscan binding. The conditions noted are these: read-out: % Ctrl BMX.

The target in assay [1] is TYK2(JH1domain-catalytic) (Homo sapiens, UniProt P29597). Briefly: KINOMEscan binding. The conditions noted are these: read-out: % Ctrl TYK2(JH1domain-catalytic).
Experimental: (§1) Therefore, we included the whole TEC, EGFR and JAK family in our screening, and the Src family and Lkb1, which also have a cysteine within the same sequence alignment. We also included kinases involved in upstream (Src, FAK, PI3K, mTOR, PDK1) and downstream (Akt, PAK1, TAM) regulation of BMX signaling pathway and non-receptor tyrosine protein kinase Abl.
(§2) Kinome selectivity was performed with DiscoverX KINOMEscan™ technology.
The target of the next assay is MTOR (Homo sapiens, UniProt P42345). Briefly: KINOMEscan binding. The following applies: read-out: % Ctrl MTOR.
A further assay concerns the target AKT1 (Homo sapiens, UniProt P31749). The experiment in a line: KINOMEscan binding. The following applies: read-out: % Ctrl AKT1.
Another assay deals with TXK (Homo sapiens, UniProt P42681). Briefly: KINOMEscan binding. The following applies: read-out: % Ctrl TXK.
In the next assay the target is AXL (Homo sapiens, UniProt P30530). Briefly: KINOMEscan binding. The following applies: read-out: % Ctrl AXL.
For another assay, the target named is AKT2 (Homo sapiens, UniProt P31751). The experiment in a line: KINOMEscan binding. The following applies: read-out: % Ctrl AKT2.
The target in assay [2] is JAK3(JH1domain-catalytic) (Homo sapiens, UniProt P52333). The experiment in a line: KINOMEscan binding. The following applies: read-out: % Ctrl JAK3(JH1domain-catalytic).
Experimental: as §1, §2
Another assay addresses EGFR (Homo sapiens, UniProt P00533). Briefly: KINOMEscan binding. The following applies: read-out: % Ctrl EGFR.
In a further assay the target is LYN (Homo sapiens, UniProt P07948). Briefly: KINOMEscan binding. The conditions noted are these: read-out: % Ctrl LYN.
Assay [3] deals with JAK1(JH1domain-catalytic) (Homo sapiens, UniProt P23458). The experiment in a line: KINOMEscan binding. The following applies: read-out: % Ctrl JAK1(JH1domain-catalytic).
Experimental: (§3) Therefore, we included the whole TEC, EGFR and JAK family in our screening, and the Src family and Lkb1, which also have a cysteine within the same sequence alignment.
as §2
A further assay concerns the target MERTK (Homo sapiens, UniProt Q12866). The experiment in a line: KINOMEscan binding. The conditions noted are these: read-out: % Ctrl MERTK.
The target in the next assay is ERBB3 (Homo sapiens, UniProt P21860). Briefly: KINOMEscan binding. The following applies: read-out: % Ctrl ERBB3.
The target in assay [4] is JAK2(JH1domain-catalytic) (Homo sapiens, UniProt O60674). Briefly: KINOMEscan binding. The following applies: read-out: % Ctrl JAK2(JH1domain-catalytic).
Experimental: as §1, §2
Another assay concerns the target BTK (Homo sapiens, UniProt Q06187). Briefly: KINOMEscan binding. The following applies: read-out: % Ctrl BTK.
In another assay the target is FYN (Homo sapiens, UniProt P06241). Briefly: KINOMEscan binding. The conditions noted are these: read-out: % Ctrl FYN.

MERTK, sequence (Q12866 21-999): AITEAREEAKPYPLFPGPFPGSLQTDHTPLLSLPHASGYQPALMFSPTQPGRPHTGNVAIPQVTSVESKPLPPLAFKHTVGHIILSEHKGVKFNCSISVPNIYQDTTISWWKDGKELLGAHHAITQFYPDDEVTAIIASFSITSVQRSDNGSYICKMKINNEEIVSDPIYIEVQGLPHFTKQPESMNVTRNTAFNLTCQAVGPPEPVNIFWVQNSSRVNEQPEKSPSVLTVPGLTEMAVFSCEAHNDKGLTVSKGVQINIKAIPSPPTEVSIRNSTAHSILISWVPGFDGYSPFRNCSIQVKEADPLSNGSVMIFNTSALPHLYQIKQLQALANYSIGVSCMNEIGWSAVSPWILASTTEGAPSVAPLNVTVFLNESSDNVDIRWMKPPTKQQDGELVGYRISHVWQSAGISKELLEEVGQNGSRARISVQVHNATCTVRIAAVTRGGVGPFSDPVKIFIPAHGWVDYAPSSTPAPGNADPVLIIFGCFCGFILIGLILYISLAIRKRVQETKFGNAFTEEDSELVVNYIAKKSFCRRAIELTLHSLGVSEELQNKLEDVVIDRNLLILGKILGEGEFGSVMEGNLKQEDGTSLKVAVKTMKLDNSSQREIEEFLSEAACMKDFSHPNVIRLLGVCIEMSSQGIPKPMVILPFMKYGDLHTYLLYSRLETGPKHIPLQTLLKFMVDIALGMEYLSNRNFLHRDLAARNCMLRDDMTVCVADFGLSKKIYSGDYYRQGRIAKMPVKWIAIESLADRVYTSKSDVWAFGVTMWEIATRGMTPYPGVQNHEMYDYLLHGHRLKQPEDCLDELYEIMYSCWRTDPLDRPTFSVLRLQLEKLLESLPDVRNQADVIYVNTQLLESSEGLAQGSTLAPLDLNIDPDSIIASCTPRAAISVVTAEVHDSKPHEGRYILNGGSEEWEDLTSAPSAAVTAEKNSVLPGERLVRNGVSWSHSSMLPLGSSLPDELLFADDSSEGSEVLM
JAK3(JH1domain-catalytic), sequence (P52333 814-1124 limits assumed): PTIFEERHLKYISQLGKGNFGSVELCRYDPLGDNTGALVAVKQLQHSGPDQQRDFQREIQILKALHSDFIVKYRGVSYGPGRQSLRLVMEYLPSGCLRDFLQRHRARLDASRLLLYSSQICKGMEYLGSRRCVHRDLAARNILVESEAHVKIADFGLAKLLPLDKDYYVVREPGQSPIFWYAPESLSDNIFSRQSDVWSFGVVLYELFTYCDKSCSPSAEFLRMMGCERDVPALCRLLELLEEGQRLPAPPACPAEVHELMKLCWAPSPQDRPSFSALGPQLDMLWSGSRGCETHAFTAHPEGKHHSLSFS
TYK2(JH1domain-catalytic), sequence (P29597 889-1187 limits assumed): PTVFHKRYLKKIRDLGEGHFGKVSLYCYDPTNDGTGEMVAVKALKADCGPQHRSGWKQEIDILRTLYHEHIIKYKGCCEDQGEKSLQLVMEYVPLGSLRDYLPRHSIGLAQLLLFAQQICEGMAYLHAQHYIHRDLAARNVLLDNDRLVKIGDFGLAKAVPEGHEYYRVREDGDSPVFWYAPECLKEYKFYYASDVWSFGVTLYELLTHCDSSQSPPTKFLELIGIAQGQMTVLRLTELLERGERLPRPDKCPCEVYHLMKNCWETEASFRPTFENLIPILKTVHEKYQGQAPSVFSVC
AXL, sequence (P30530 26-894): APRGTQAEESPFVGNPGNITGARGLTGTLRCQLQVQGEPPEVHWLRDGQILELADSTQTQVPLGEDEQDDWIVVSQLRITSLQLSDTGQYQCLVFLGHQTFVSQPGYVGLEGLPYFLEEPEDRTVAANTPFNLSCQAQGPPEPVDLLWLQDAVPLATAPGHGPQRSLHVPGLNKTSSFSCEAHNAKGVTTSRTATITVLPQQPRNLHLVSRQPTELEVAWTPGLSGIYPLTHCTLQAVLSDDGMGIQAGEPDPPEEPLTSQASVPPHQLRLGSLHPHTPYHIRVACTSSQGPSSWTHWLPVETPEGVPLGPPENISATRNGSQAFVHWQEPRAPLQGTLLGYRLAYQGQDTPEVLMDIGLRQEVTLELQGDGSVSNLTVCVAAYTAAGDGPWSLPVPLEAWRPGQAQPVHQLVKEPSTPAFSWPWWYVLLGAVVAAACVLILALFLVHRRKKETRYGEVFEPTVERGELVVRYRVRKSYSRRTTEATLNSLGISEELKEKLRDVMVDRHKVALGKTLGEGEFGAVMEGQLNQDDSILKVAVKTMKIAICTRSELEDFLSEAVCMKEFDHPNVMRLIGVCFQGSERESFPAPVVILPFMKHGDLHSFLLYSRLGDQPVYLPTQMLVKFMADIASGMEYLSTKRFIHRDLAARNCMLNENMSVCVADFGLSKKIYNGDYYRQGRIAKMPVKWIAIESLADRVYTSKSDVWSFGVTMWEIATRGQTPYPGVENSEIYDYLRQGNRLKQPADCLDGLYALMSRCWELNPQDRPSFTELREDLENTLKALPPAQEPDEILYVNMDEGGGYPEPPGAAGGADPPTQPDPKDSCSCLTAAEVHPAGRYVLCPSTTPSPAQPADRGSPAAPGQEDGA
AKT2, sequence (P31751 whole entry): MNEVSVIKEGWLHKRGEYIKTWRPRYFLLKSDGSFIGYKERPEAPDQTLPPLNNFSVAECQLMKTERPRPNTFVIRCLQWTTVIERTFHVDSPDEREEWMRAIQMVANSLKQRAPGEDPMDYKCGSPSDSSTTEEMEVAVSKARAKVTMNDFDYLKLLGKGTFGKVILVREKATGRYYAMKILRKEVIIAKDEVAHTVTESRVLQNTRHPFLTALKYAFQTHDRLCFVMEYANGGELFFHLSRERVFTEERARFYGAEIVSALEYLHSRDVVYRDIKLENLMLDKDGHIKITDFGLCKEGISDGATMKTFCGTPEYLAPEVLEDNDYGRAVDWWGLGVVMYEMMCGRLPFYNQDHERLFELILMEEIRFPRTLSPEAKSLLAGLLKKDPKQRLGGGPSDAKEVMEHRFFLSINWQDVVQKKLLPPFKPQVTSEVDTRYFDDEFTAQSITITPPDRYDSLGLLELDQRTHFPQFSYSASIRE
EGFR, sequence (P00533 25-1210): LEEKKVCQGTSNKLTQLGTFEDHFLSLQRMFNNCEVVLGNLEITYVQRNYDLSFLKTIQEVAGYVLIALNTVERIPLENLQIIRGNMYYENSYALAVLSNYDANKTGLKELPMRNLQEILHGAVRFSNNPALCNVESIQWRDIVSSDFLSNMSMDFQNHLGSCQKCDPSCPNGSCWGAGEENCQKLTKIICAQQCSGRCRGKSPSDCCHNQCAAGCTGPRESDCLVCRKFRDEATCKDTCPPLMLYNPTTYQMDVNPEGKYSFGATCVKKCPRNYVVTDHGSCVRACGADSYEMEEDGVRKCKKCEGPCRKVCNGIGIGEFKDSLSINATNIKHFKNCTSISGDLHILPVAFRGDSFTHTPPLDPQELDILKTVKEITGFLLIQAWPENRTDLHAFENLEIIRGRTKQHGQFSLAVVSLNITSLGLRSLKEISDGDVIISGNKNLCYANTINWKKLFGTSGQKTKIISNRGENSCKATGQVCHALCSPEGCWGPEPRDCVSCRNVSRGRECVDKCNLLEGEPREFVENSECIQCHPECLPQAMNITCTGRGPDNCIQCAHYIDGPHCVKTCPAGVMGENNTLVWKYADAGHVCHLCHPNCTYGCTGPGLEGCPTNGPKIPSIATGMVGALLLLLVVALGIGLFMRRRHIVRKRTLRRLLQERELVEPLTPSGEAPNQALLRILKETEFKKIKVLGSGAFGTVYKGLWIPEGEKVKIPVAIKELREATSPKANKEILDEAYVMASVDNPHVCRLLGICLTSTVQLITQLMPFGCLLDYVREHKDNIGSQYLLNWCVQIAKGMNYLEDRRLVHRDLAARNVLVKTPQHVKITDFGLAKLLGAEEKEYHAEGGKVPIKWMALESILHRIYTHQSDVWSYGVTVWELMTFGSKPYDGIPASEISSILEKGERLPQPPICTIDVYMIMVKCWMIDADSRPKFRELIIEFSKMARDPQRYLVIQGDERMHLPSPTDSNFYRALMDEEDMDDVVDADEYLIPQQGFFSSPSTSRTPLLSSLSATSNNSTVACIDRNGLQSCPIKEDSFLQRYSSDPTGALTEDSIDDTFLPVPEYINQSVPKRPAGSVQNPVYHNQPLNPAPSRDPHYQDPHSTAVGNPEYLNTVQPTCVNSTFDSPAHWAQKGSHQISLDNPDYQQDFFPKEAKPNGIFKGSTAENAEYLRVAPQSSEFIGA
JAK1(JH1domain-catalytic), sequence (P23458 867-1154 limits assumed): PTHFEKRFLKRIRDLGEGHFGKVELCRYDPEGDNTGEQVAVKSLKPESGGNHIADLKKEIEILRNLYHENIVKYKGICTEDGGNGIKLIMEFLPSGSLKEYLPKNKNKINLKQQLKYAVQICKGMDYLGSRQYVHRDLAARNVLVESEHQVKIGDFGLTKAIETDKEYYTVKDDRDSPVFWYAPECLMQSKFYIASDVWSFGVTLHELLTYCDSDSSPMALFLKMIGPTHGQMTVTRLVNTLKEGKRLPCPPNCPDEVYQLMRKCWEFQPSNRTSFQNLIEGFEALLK
LYN, sequence (P07948 whole entry): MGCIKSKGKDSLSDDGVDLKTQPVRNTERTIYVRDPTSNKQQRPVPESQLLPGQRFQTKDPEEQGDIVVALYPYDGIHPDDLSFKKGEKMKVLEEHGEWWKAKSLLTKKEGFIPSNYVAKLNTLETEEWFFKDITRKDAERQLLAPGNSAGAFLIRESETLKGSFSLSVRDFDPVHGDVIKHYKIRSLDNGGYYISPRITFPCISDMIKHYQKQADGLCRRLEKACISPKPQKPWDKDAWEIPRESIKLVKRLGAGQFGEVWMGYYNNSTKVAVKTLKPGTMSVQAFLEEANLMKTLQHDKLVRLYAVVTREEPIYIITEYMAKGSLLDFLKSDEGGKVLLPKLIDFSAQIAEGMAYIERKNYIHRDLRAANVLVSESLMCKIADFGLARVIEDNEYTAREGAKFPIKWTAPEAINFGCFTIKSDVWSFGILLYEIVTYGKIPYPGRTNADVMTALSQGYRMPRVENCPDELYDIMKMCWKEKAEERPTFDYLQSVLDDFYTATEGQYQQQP
Experimental for AKT1: as §1, §2
Experimental for AKT2: as §1, §2
Experimental for AXL: as §1, §2
Experimental for BTK: as §3, §2
Experimental for EGFR: as §3, §2
Experimental for ERBB3: as §3, §2
Experimental for FYN: as §1, §2
Text for His6-hsBMX: response upon compound injection (t=0s), or upon washing (t=220s), on immobilized His6-
hsBMX surfaces. Compound concentrations injected on already saturated surfaces were not
included in the 1:1 Langmuir fitting model. X-axis: time (s); y-axis: response (arbitrary units).
Inset plots [x-axis: compound concentration (M); y-axis: response (arbitrary units)] show the
steady-state affinity (KDss) fit for the interactions wherein equilibrium was reached.
Surface Plasmon Resonance:
The kinetic and affinity parameters of protein-compound interaction were evaluated by SPR.
Experiments were carried out in a Biacore 4000 instrument (Biacore AB, GE Healthcare Life
Sciences, Uppsala, Sweden) at 25 °C. His6-BMX protein was diluted to 10 µg/mL in sodium
acetate pH 5.5, in the presence of 5 µM staurosporine and immobilized onto CM5 (Series S)
sensor chips, using the standard amine coupling procedure. Prior to immobilization, the
carboxymethylated surface of the chip was activated with 400 mM 1-ethyl-3-(3-
dimethylaminopropyl)-carbodiimide and 100 mM N-hydroxysuccinimide for 10 min. HBS-N
(10 mM HEPES pH7.4, 150mM NaCl) was used as the background buffer. Protein was coupled
to the surface after 2 to 10 min injection times, at a flow rate of 10 µL/min, in order to reach
1500 to 3500 response units (RU). The remaining activated carboxymethylated groups were
blocked with a 7 min injection of 1 M ethanolamine pH 8.5. Compounds were pre-diluted in
DMSO to 50x the desired highest tested concentration and diluted afterwards in running buffer
(20 mM HEPES pH 7.4, 150 mM NaCl, 1 mM DTT, 0.1 mM EGTA, 0.05 % (v/v) TWEEN-
20, 5 mM MgCl2) in order to reach 2% of DMSO concentration. A DMSO solvent correction
(1% - 3%) was performed to account for variations in bulk signal and to achieve high-quality
data. Each compound was injected over immobilized His6-BMX for 220 s (30 µL min-1;
association phase) followed by 600 to 2000 s of buffer flow (dissociation phase) at a maximum
five times in 2-fold dilution series. All sensorgrams were processed by first subtracting the
binding response recorded from the control surface (reference spot), followed by subtracting
the buffer blank injection from the reaction spot. All datasets were fit to a simple 1:1 Langmuir
interaction model with the provided Biacore 4000 Evaluation software, to determine kinetic rate constants (kon, koff) or steady-state affinity (KDss).
Experimental for LYN: as §1, §2
Experimental for MERTK: as §1, §2
Experimental for MTOR: as §1, §2
Experimental for PTK2: as §1, §2
Experimental for TXK: as §3, §2

As a reminder, the GI50 is the concentration at which growth is held to half of that of the control. A lower GI50 goes with more potent growth inhibition. One may read the koff as a measure of how fast the partners let go of each other. In general, kon refers to the second-order rate constant of association. Higher therefore signals fast association. Consider `C=CC(=O)Nc1cc(-n2c(=O)ccc3cnc4cc(-c5ccc(NS(C)(=O)=O)cc5)ccc4c32)ccc1C` [JS24], for which the GI50 in the assay on SK-N-MC was found to be 8.53 ± 0.44 µM; with H1299, 7.28 ± 0.37 µM; in the assay on LNCaP it was 4.4 µM; in the assay with 22 RV1, 6.66 ± 0.09 µM; in the assay with RS4(11), 2.09 µM; with U-87MG it was 5.04 ± 0.01 µM. Moreover, the GI50 came out at 8.56 µM with CAOV3, 5.12 ± 0.12 µM in the assay on Kasumi and 5.48 µM in the assay on Jurkat. Moreover, at His6-hsBMX, the koff is less than 0.0001 s⁻¹. Further, at His6-hsBMX, the kon was found to be 140000 M⁻¹ s⁻¹.

Take `C=CC(=O)Nc1cc(C)cc(-n2c(=O)ccc3cnc4cc(-c5ccc(NS(C)(=O)=O)cc5)ccc4c32)c1` [JS25]: the remaining binding at 1 µM at PTK2 was 93%; on BMX it was 1.3%; in assay [1], 100%; on MTOR, 100%; on AKT1 it was 100%; at TXK it was 3.4%. Besides, the remaining binding at 1 µM on AXL was 93%; at AKT2, 94%; in assay [2] it was 21%; on EGFR, 87%; at LYN, 100%; in assay [3] it was 93%. Moreover, the remaining binding at 1 µM on MERTK came to 89%; on ERBB3, 91%; in [4], 81%; on BTK, 0%; on FYN, 99%.
